Experimental data published in patent publication US20250223307A1, “MDM2/MDMX DOUBLE-TARGET INHIBITOR COMPOUND, PRODRUG, PHARMACEUTICAL COMPOSITION, AND PREPARATION METHOD THEREFOR AND USE THEREOF” (GLOBAL HEALTH DRUG DISCOVERY INSTITUTE, priority 2022, published 2025).

How the values were obtained:
[1] = test system: Blood cancer cells RS4; 11; test: CellTiter Glo test: growth inhibition of cells; format: cell-based; conditions: Homo sapiens, 11 cells, 72 h, cell viability
Method: Test of Candidate Compounds on Growth Inhibition of Cells Determined by CellTiter Glo
Blood cancer cells RS4; 11 were inoculated into the 96-well cell culture plate through Multidrop 3000 cells per well, with a volume of 100 μL. The final compound concentration ranged from 50 μM to 0.01 μM at 9 concentration gradients and the DMSO final concentration was 0.1%. The cells and compounds were co-incubated in a cell incubator at 37° C. for 72 h, a CellTiter-Glo Luminescent Cell Viability Assay reagent was added 100 μL/well, the cells and compound were uniformly mixed and incubated at room temperature for 10 min, and Envision reading was performed. A sample treated with 50 μM of a positive compound was taken as a positive control and a sample treated with 100 nL of DMSO was taken as a negative control.

MDMX = target: T1, MDMX (Homo sapiens, UniProt O15151); test: HTRF test: inhibition of MDMX-p53 protein binding
T1 sequence (O15151 2-134): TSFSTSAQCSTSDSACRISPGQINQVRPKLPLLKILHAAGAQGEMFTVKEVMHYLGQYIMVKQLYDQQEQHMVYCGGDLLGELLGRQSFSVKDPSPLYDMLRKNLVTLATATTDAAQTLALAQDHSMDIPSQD

MDM2 = MDM2 (Homo sapiens, UniProt Q00987); test: HTRF test: inhibition of MDM2-p53 protein binding
MDM2, sequence (Q00987 2-138): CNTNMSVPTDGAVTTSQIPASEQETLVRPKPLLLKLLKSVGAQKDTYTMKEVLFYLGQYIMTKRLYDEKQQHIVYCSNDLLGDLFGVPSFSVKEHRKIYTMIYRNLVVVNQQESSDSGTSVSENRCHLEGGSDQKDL

Structure (SMILES): C#Cc1ccc(CN2C(=O)N/C(=C\c3c[nH]c4c(F)c(Cl)ccc34)C2=O)cc1 [Compound 17, (Z)-5-((6-chloro-7-fluoro-1H-indol-3-yl)methylene)-3-(4-acetenylbenzyl)imidazolidine-2,4-dione]
- IC50 [1]: ≤ 1000 nM
- IC50 (MDMX): 10 to 100 nM
- IC50 (MDM2): 10 to 100 nM

Structure (SMILES): N#Cc1cccc(CN2C(=O)N/C(=C\c3c[nH]c4c(F)c(Cl)ccc34)C2=O)c1 [Compound 18, (Z)-3-((4-((6-chloro-7-fluoro-1H-indol-3-yl)methylene)-2,5-dioxoimidazolidin-1-yl)methyl)benzonitrile]
- IC50 [1]: ≤ 1000 nM
- IC50 (MDMX): 10 to 100 nM
- IC50 (MDM2): 10 to 100 nM

Structure (SMILES): Cc1c(Cl)ccc2c(/C=C3\NC(=O)N(Cc4ccc(C#N)cc4)C3=O)c[nH]c12 [Compound 19, (Z)-4-((4-((6-chloro-7-methyl-1H-indol-3-yl)methylene)-2,5-dioxoimidazolidin-1-yl)methyl)benzonitrile]
- IC50 [1]: ≤ 1000 nM
- IC50 (MDMX): < 10 nM
- IC50 (MDM2): < 10 nM

Structure (SMILES): N#Cc1ccc(CN2C(=O)N/C(=C\c3c[nH]c4cc(Cl)ccc34)C2=O)cc1F [Compound 20, (Z)-4-((4-((6-chloro-1H-indol-3-yl)methylene)-2,5-dioxoimidazolidin-1-yl)methyl)-2-fluorobenzonitrile]
- IC50 [1]: ≤ 1000 nM
- IC50 (MDMX): 10 to 100 nM
- IC50 (MDM2): 10 to 100 nM

Structure (SMILES): Cc1c(Cl)ccc2c(/C=C3\NC(=O)N(Cc4ccc(C#N)c(F)c4)C3=O)c[nH]c12 [Compound 21, (Z)-4-((4-((6-chloro-7-methyl-1H-indol-3-yl)methylene)-2,5-dioxoimidazolidin-1-yl)methyl)-2-fluorobenzonitrile]
- IC50 [1]: ≤ 1000 nM
- IC50 (MDMX): < 10 nM
- IC50 (MDM2): 10 to 100 nM

Structure (SMILES): O=C(NC(CO)CO)C(c1ccc(F)c(F)c1)N1C(=O)N/C(=C\c2c[nH]c3cc(Cl)ccc23)C1=O (stereo not drawn) [Compound 24, (Z)-2-(4-((6-chloro-1H-indol-3-yl)methylene)-2,5-dioxoimidazolidin-1-yl)-2-(3,4-difluorophenyl)-N-(1,3-dihydroxypropan-2-yl)acetamide]
- IC50 [1]: 1000 to 10000 nM
- IC50 (MDMX): 10 to 100 nM
- IC50 (MDM2): 10 to 100 nM

Structure (SMILES): O=C1N/C(=C\c2c[nH]c3cc(Cl)ccc23)C(=O)N1C(CO)c1ccc(F)c(F)c1 (stereo not drawn) [Compound 26]
- IC50 [1]: ≤ 1000 nM
- IC50 (MDMX): < 10 nM
- IC50 (MDM2): < 10 nM

Structure (SMILES): N#Cc1ccc(C(C(=O)NC(CO)CO)N2C(=O)N/C(=C\c3c[nH]c4c(F)c(Cl)ccc34)C2=O)cc1F (stereo not drawn) [Compound 27, (Z)-2-(4-((6-chloro-7-fluoro-1H-indol-3-yl)methylene)-2,5-dioxoimidazolidin-1-yl)-2-(4-cyano-3-fluorophenyl)-N-(1,3-dihydroxypropan-2-yl)acetamide]
- IC50 [1]: ≤ 1000 nM
- IC50 (MDMX): < 10 nM
- IC50 (MDM2): < 10 nM

Structure (SMILES): O=C(NC(CO)CO)C(c1ccc(Cl)cc1)N1C(=O)N/C(=C\c2c[nH]c3c(F)c(Cl)ccc23)C1=O (stereo not drawn) [Compound 28, (Z)-2-(4-((6-chloro-7-fluoro-1H-indol-3-yl)methylene)-2,5-dioxoimidazolidin-1-yl)-2-(4-chlorophenyl)-N-(1,3-dihydroxypropan-2-yl)acetamide]
- IC50 [1]: ≤ 1000 nM
- IC50 (MDMX): < 10 nM
- IC50 (MDM2): < 10 nM

Structure (SMILES): N#Cc1ccc(C(C(=O)NC(CO)CO)N2C(=O)N/C(=C\c3c[nH]c4c(F)c(Cl)ccc34)C2=O)cc1 (stereo not drawn) [Compound 29, (Z)-2-(4-((6-chloro-7-fluoro-1H-indol-3-yl)methylene)-2,5-dioxoimidazolidin-1-yl)-2-(4-cyanophenyl)-N-(1,3-dihydroxypropan-2-yl)acetamide]
- IC50 [1]: 1000 to 10000 nM
- IC50 (MDMX): < 10 nM
- IC50 (MDM2): < 10 nM

Structure (SMILES): Cc1c(Cl)ccc2c(/C=C3\NC(=O)N(C(C(=O)NC(CO)(CO)CO)c4ccc(F)c(F)c4)C3=O)c[nH]c12 (stereo not drawn) [Compound 30, (Z)-2-(4-((6-chloro-7-methyl-1H-indol-3-yl)methylene)-2,5-dioxoimidazolidin-1-yl)-2-(3,4-difluorophenyl)-N-(1,3-dyhydroxl-2-(hydroxymethyl)-2-propyl)acetamide]
- IC50 [1]: ≤ 1000 nM
- IC50 (MDMX): < 10 nM
- IC50 (MDM2): < 10 nM

Structure (SMILES): N#Cc1ccc(C(C(=O)NC(CO)CO)N2C(=O)N/C(=C\c3c[nH]c4cc(Cl)ccc34)C2=O)cc1 (stereo not drawn) [Compound 31, (Z)-2-(4-((6-chloro-1H-indol-3-yl)methylene)-2,5-dioxoimidazolidin-1-yl)-2-(4-cyanophenyl)-N-(1,3-dihydroxypropan-2-yl)acetamide]
- IC50 [1]: 1000 to 10000 nM
- IC50 (MDMX): 10 to 100 nM
- IC50 (MDM2): 10 to 100 nM

Structure (SMILES): Cc1c(Cl)ccc2c(/C=C3\NC(=O)N(C(C(=O)NC(CO)CO)c4ccc(C#N)cc4)C3=O)c[nH]c12 (stereo not drawn) [Compound 32, (Z)-2-(4-((6-chloro-7-methyl-1H-indol-3-yl)methylene)-2,5-dioxoimidazolidin-1-yl)-2-(4-cyanophenyl)-N-(1,3-dihydroxypropan-2-yl)acetamide]
- IC50 [1]: 1000 to 10000 nM
- IC50 (MDMX): < 10 nM
- IC50 (MDM2): < 10 nM

Structure (SMILES): N#Cc1ccc(C(C=O)N2C(=O)N/C(=C\c3c[nH]c4c(F)c(Cl)ccc34)C2=O)cc1F (stereo not drawn) [Compound 33, (Z)-4-(1-(4-((6-chloro-7-fluoro-1H-indol-3-yl)methylene)-2,5-dioxoimidazolidin-1-yl)-2-oxyethyl)-2-fluorobenzonitrile]
- IC50 [1]: 1000 to 10000 nM
- IC50 (MDMX): 10 to 100 nM
- IC50 (MDM2): 10 to 100 nM

Structure (SMILES): N#Cc1ccc(CN2C(=O)N/C(=C\c3c[nH]c4c(F)c(Cl)ccc34)C2=O)c(F)c1F [Compound 34, 4-{[(4Z)-4-[(6-chloro-7-fluoro-1H-indol-3-yl)methylene]-2,5-dioxoimidazolidin-1-yl]methyl}-2,3-difluorobenzonitrile]
- IC50 [1]: ≤ 1000 nM
- IC50 (MDMX): 10 to 100 nM
- IC50 (MDM2): < 10 nM

Structure (SMILES): N#Cc1c(F)cc(CN2C(=O)N/C(=C\c3c[nH]c4c(F)c(Cl)ccc34)C2=O)cc1F [Compound 35]
- IC50 [1]: ≤ 1000 nM
- IC50 (MDMX): 10 to 100 nM
- IC50 (MDM2): 10 to 100 nM

Structure (SMILES): N#Cc1cc(F)c(CN2C(=O)N/C(=C\c3c[nH]c4c(F)c(Cl)ccc34)C2=O)cc1F [Compound 36, 4-{[(4Z)-4-[(6-chloro-7-fluoro-1H-indol-3-yl)methylene]-2,5-dioxoimidazolidin-1-yl]methyl}-2,5-difluorobenzonitrile]
- IC50 [1]: ≤ 1000 nM
- IC50 (MDMX): 10 to 100 nM
- IC50 (MDM2): < 10 nM

Structure (SMILES): N#Cc1ccc(C(CO)N2C(=O)N/C(=C\c3c[nH]c4c(F)c(Cl)ccc34)C2=O)cc1F (stereo not drawn) [Compound 37, (Z)-4-(1-(4-((6-chloro-7-fluoro-1H-indol-3-yl)methylene)-2,5-dioxoimidazolidin-1-yl)-2-hydroxyethyl)-2-fluorobenzonitrile]
- IC50 [1]: ≤ 1000 nM
- IC50 (MDMX): 10 to 100 nM
- IC50 (MDM2): 10 to 100 nM

Structure (SMILES): N#Cc1ccc(C(C(=O)NCCO)N2C(=O)N/C(=C\c3c[nH]c4c(F)c(Cl)ccc34)C2=O)cc1F (stereo not drawn) [Compound 41, (Z)-2-(4-((6-chloro-7-fluoro-1H-indol-3-yl)methylene)-2,5-dioxoimidazolidin-1-yl)-2-(4-cyano-3-fluorophenyl)-N-(2-hydroxyethyl)acetamide]
- IC50 [1]: ≤ 1000 nM
- IC50 (MDMX): < 10 nM
- IC50 (MDM2): < 10 nM

Structure (SMILES): O=C1N/C(=C\c2c[nH]c3cc(Cl)ccc23)C(=O)N1C(CO)c1ccc(Cl)cc1 (stereo not drawn) [Compound 45, (Z)-5-((6-chloro-1H-indol-3-yl)methylene)-3-(1-(4-chlorophenyl)-2-hydroxyethyl)imidazolidine-2,4-dione]
- IC50 [1]: ≤ 1000 nM
- IC50 (MDMX): 10 to 100 nM
- IC50 (MDM2): 10 to 100 nM

Structure (SMILES): Cc1c(Cl)ccc2c(/C=C3\NC(=O)N(C(C(=O)NCCO)c4ccc(Cl)cc4)C3=O)c[nH]c12 (stereo not drawn) [Compound 48, (Z)-2-(4-((6-chloro-7-methyl-1H-indol-3-yl)methylene)-2,5-dioxoimidazolidin-1-yl)-2-(4-chlorophenyl)-N-(2-hydroxyethyl)acetamide]
- IC50 [1]: ≤ 1000 nM
- IC50 (MDMX): < 10 nM
- IC50 (MDM2): < 10 nM

Structure (SMILES): N#Cc1ccc([C@H](CO)N2C(=O)N/C(=C\c3c[nH]c4cc(Cl)ccc34)C2=O)cc1 [Compound 49, (R,Z)-4-(1-(4-((6-chloro-1H-indol-3-yl)methylene)-2,5-dioxoimidazolidin-1-yl)-2-hydroxyethyl)benzonitrile]
- IC50 [1]: ≤ 1000 nM
- IC50 (MDMX): 10 to 100 nM
- IC50 (MDM2): < 10 nM

Structure (SMILES): N#Cc1ccc([C@@H](CO)N2C(=O)N/C(=C\c3c[nH]c4cc(Cl)ccc34)C2=O)cc1 [Compound 50, (S,Z)-4-(1-(4-((6-chloro-1H-indol-3-yl)methylene)-2,5-dioxoimidazolidin-1-yl)-2-hydroxyethyl)benzonitrile]
- IC50 [1]: ≤ 1000 nM
- IC50 (MDMX): > 100 nM
- IC50 (MDM2): 10 to 100 nM

Structure (SMILES): O=C1N/C(=C\c2c[nH]c3cc(Cl)ccc23)C(=O)N1[C@H](CO)c1ccc(F)c(F)c1 [Compound 53, (S,Z)-5-((6-chloro-1H-indol-3-yl)methylene)-3-(1-(3,4-difluorophenyl)-2-hydroxyethyl)imidazolidine-2,4-dione]
- IC50 [1]: 1000 to 10000 nM
- IC50 (MDMX): < 10 nM
- IC50 (MDM2): < 10 nM

Structure (SMILES): O=C1N/C(=C\c2c[nH]c3cc(Cl)ccc23)C(=O)N1[C@@H](CO)c1ccc(F)c(F)c1 [Compound 54, (R,Z)-5-((6-chloro-1H-indol-3-yl)methylene)-3-(1-(3,4-difluorophenyl)-2-hydroxyethyl)imidazolidine-2,4-dione]
- IC50 [1]: ≤ 1000 nM
- IC50 (MDMX): 10 to 100 nM
- IC50 (MDM2): 10 to 100 nM
